Measurements reported in ChEMBL document CHEMBL1201862, “PubChem BioAssay data set” (2004).
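48-hour exposure; five concentrations; linearly interpolated endpoints. At the GI50, growth is halved.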 Activity calls are given as the source filed them. Cut-off read from the data, not from the text of the source: active = GI50 up to about 1.1 µM and inactive = higher.

Assays:
Experiment in all cases: NCI-60 cell line screen, 48 h
NCI-H460 = system: NCI-H460
SK-OV-3 = system: SK-OV-3
MOLT-4 = system: MOLT-4
PC-3 = system: PC-3
Hs-578T = system: Hs-578T
RPMI-8226 = system: RPMI-8226
UACC-62 = system: UACC-62
ACHN = system: ACHN
EKVX = system: EKVX
CAKI-1 = system: CAKI-1
LOX IMVI = system: LOX IMVI
SF-539 = system: SF-539
NCI-H23 = system: NCI-H23
NCI-H522 = system: NCI-H522
HOP-92 = system: HOP-92
RXF 393 = system: RXF 393
A498 = system: A498
K562 = system: K562
CCRF-CEM = system: CCRF-CEM
MDA-N = system: MDA-N

NC1=NNC2(C(N)=N1)c1ccccc1-c1ccccc12
GI50 (NCI-H460): > 10 µM (inactive) | GI50 (SK-OV-3): > 10 µM (inactive) | GI50 (MOLT-4): > 10 µM (inactive) | GI50 (PC-3): > 10 µM (inactive) | GI50 (Hs-578T): > 10 µM (inactive) | GI50 (RPMI-8226): > 10 µM (inactive) | GI50 (UACC-62): > 10 µM (inactive) | GI50 (ACHN): > 10 µM (inactive) | GI50 (EKVX): > 10 µM (inactive) | GI50 (CAKI-1): > 10 µM (inactive) | GI50 (LOX IMVI): > 10 µM (inactive) | GI50 (SF-539): > 10 µM (inactive) | GI50 (NCI-H23): > 10 µM (inactive) | GI50 (NCI-H522): > 10 µM (inactive) | GI50 (HOP-92): > 10 µM (inactive) | GI50 (RXF 393): > 10 µM (inactive)

COc1cc(C(=O)C/C(CCC(=O)Nc2ccccc2[N+](=O)[O-])=N\NC(N)=O)ccc1O
GI50 (NCI-H460): > 100 µM (inactive) | GI50 (SK-OV-3): > 100 µM (inactive) | GI50 (MOLT-4): > 100 µM (inactive) | GI50 (A498): > 100 µM (inactive) | GI50 (RPMI-8226): > 100 µM (inactive) | GI50 (UACC-62): > 100 µM (inactive) | GI50 (ACHN): > 100 µM (inactive) | GI50 (EKVX): 32.9 µM (inactive) | GI50 (CAKI-1): > 100 µM (inactive) | GI50 (K562): > 100 µM (inactive) | GI50 (LOX IMVI): > 100 µM (inactive) | GI50 (CCRF-CEM): > 100 µM (inactive) | GI50 (SF-539): > 100 µM (inactive) | GI50 (NCI-H23): > 100 µM (inactive) | GI50 (NCI-H522): > 100 µM (inactive) | GI50 (HOP-92): > 100 µM (inactive) | GI50 (RXF 393): > 100 µM (inactive)

O=C(/C=C/c1ccc(Br)cc1)c1ccc(NCc2nc3ccccc3[nH]2)cc1
GI50 (NCI-H460): 8.22 µM (inactive) | GI50 (SK-OV-3): 28.4 µM (inactive) | GI50 (MOLT-4): 3.31 µM (inactive) | GI50 (A498): 19.1 µM (inactive) | GI50 (RPMI-8226): 1.93 µM (inactive) | GI50 (UACC-62): 7.1 µM (inactive) | GI50 (ACHN): 17.5 µM (inactive) | GI50 (EKVX): > 30.2 µM (inactive) | GI50 (CAKI-1): 9.68 µM (inactive) | GI50 (K562): 3.35 µM (inactive) | GI50 (LOX IMVI): 2.11 µM (inactive) | GI50 (CCRF-CEM): 4.76 µM (inactive) | GI50 (SF-539): 10 µM (inactive) | GI50 (NCI-H23): 4.95 µM (inactive) | GI50 (NCI-H522): 3.41 µM (inactive) | GI50 (HOP-92): 4 µM (inactive) | GI50 (RXF 393): 4.35 µM (inactive)

O=C(CCc1ccccc1)NS(=O)(=O)c1ccccc1
GI50 (NCI-H460): > 100 µM (inactive) | GI50 (SK-OV-3): > 100 µM (inactive) | GI50 (MOLT-4): > 100 µM (inactive) | GI50 (A498): > 100 µM (inactive) | GI50 (RPMI-8226): > 100 µM (inactive) | GI50 (UACC-62): > 100 µM (inactive) | GI50 (ACHN): > 100 µM (inactive) | GI50 (EKVX): > 100 µM (inactive) | GI50 (CAKI-1): > 100 µM (inactive) | GI50 (K562): > 100 µM (inactive) | GI50 (LOX IMVI): > 100 µM (inactive) | GI50 (CCRF-CEM): > 100 µM (inactive) | GI50 (SF-539): > 100 µM (inactive) | GI50 (NCI-H23): > 100 µM (inactive) | GI50 (NCI-H522): > 100 µM (inactive) | GI50 (HOP-92): > 100 µM (inactive) | GI50 (RXF 393): > 100 µM (inactive)

Oc1ccc2c(c1)-c1c(c3cc(O)ccc3n1CCN1CCOCC1)CC2
GI50 (SK-OV-3): 23.9 µM (inactive) | GI50 (MOLT-4): 19.6 µM (inactive) | GI50 (PC-3): 18.4 µM (inactive) | GI50 (A498): 21 µM (inactive) | GI50 (Hs-578T): 27 µM (inactive) | GI50 (RPMI-8226): 24.7 µM (inactive) | GI50 (UACC-62): 16.7 µM (inactive) | GI50 (ACHN): 30.5 µM (inactive) | GI50 (EKVX): 30.8 µM (inactive) | GI50 (CAKI-1): 24.9 µM (inactive) | GI50 (K562): 20 µM (inactive) | GI50 (LOX IMVI): 17.6 µM (inactive) | GI50 (CCRF-CEM): 22.8 µM (inactive) | GI50 (SF-539): 22.6 µM (inactive) | GI50 (NCI-H23): 25.3 µM (inactive) | GI50 (NCI-H522): 17.4 µM (inactive) | GI50 (HOP-92): 26.1 µM (inactive) | GI50 (RXF 393): 19.7 µM (inactive)

C=C(C)C(=O)O[C@H]1CC2(CO)O[C@@H]2CC/C(COC(C)=O)=C/C2OC(=O)C(=C)[C@@H]21 (stereo partly specified)
GI50 (NCI-H460): > 100 µM (inactive) | GI50 (SK-OV-3): > 100 µM (inactive) | GI50 (MOLT-4): 7.93 µM (inactive) | GI50 (PC-3): 56.1 µM (inactive) | GI50 (A498): > 100 µM (inactive) | GI50 (Hs-578T): > 92.5 µM (inactive) | GI50 (RPMI-8226): 7.16 µM (inactive) | GI50 (UACC-62): 39.5 µM (inactive) | GI50 (ACHN): 26.1 µM (inactive) | GI50 (EKVX): > 100 µM (inactive) | GI50 (CAKI-1): 28.8 µM (inactive) | GI50 (K562): 23.9 µM (inactive) | GI50 (LOX IMVI): 23.9 µM (inactive) | GI50 (CCRF-CEM): 15.7 µM (inactive) | GI50 (SF-539): 74.8 µM (inactive) | GI50 (NCI-H23): 42.2 µM (inactive) | GI50 (NCI-H522): 16.4 µM (inactive) | GI50 (HOP-92): 26.4 µM (inactive) | GI50 (RXF 393): 12.1 µM (inactive)

C#CCN(Cc1ccc2[nH]c(N)nc(=O)c2c1)c1ccc(C(=O)NC(CCC(=O)O)C(=O)O)cc1 (stereo unspecified)
GI50 (NCI-H460): 6.95 µM (inactive) | GI50 (SK-OV-3): > 100 µM (inactive) | GI50 (MOLT-4): 5.4 µM (inactive) | GI50 (PC-3): > 100 µM (inactive) | GI50 (A498): 15.7 µM (inactive) | GI50 (RPMI-8226): 7.46 µM (inactive) | GI50 (ACHN): 3.82 µM (inactive) | GI50 (EKVX): > 100 µM (inactive) | GI50 (CAKI-1): 5.3 µM (inactive) | GI50 (MDA-N): > 100 µM (inactive) | GI50 (LOX IMVI): 3.24 µM (inactive) | GI50 (CCRF-CEM): 6.5 µM (inactive) | GI50 (SF-539): 0.506 µM (active) | GI50 (NCI-H23): > 100 µM (inactive) | GI50 (HOP-92): 28.7 µM (inactive)

Cn1c2ccccc2c2[nH]cc3nc4ccccc4c-3c21
GI50 (NCI-H460): 15.5 µM (inactive) | GI50 (SK-OV-3): 24.3 µM (inactive) | GI50 (MOLT-4): 23.8 µM (inactive) | GI50 (A498): 18.7 µM (inactive) | GI50 (RPMI-8226): 19.2 µM (inactive) | GI50 (UACC-62): 18.5 µM (inactive) | GI50 (ACHN): 20.4 µM (inactive) | GI50 (EKVX): 9.71 µM (inactive) | GI50 (CAKI-1): 25.1 µM (inactive) | GI50 (K562): 26.7 µM (inactive) | GI50 (LOX IMVI): 21.3 µM (inactive) | GI50 (CCRF-CEM): 30.8 µM (inactive) | GI50 (SF-539): 18 µM (inactive) | GI50 (NCI-H23): 17.1 µM (inactive) | GI50 (NCI-H522): 13.5 µM (inactive) | GI50 (HOP-92): 27.2 µM (inactive) | GI50 (RXF 393): 16.1 µM (inactive)
